Values quoted from earlier work in patent US20160120870A1, “THE PROCESS FOR THE PREPARATION OF A PHARMACEUTICAL COMPOSITION COMPRISING RIVAROXABAN” (SANDOZ AG, priority 2013, published 2016).

Settings: background prior art, drug substance

water solubility: relatively poor
Compound: O=C(NC[C@H]1CN(c2ccc(N3CCOCC3=O)cc2)C(=O)O1)c1ccc(Cl)s1 [Rivaroxaban, (S)-5-chloro-N-{[2-oxo-3-[4-(3-oxomorpholin-4-yl)phenyl]oxazolidin-5-yl]methyl}thiophene-2-carboxamide]
